pIC50: −log10 of the molar value. Several values for one entry are separate records, joined by “and”; a condition that tells them apart may be missing. Identical values can stand only once. Blank lines part the entries; values can stand above or below the compound they belong to.
System: K98450-129-R-PDC multicell spheroids, viability
Assay: Anticancer human tumor K98450-129-R-PDC patient-derived colon adenocarcinoma cell line growth inhibition [PI3K]
Conditions: for viability, T/C: stronger effect = lower value
Outline: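 Targeted small molecules plus PI3K inhibitors, half-log dose series from Cmax (default top 10 microM), were applied to heterotypic spheroids of cancer cells with HUVEC and MSCs. Viability indicated growth inhibition.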

[1] = curve of first compound, second compound 0.00316 µM
[2] = curve of first compound, second compound 0.01 µM
[3] = curve of first compound, second compound 0.0316 µM
[4] = curve of first compound, second compound 0.1 µM
[5] = curve of first compound, second compound 0.316 µM
[6] = curve of first compound, second compound 1 µM
[7] = second compound 0.00316 µM, first compound 0.0316 µM
[8] = second compound 0.00316 µM, first compound 0.1 µM
[9] = second compound 0.00316 µM, first compound 0.316 µM
[10] = second compound 0.00316 µM, first compound 1 µM
[11] = second compound 0.00316 µM, first compound 3.16 µM
[12] = second compound 0.00316 µM, first compound 10 µM
[13] = second compound 0.01 µM, first compound 0.0316 µM
[14] = second compound 0.01 µM, first compound 0.1 µM
[15] = second compound 0.01 µM, first compound 0.316 µM
[16] = second compound 0.01 µM, first compound 1 µM
[17] = second compound 0.01 µM, first compound 3.16 µM
[18] = second compound 0.01 µM, first compound 10 µM
[19] = second compound 0.0316 µM, first compound 0.0316 µM
[20] = second compound 0.0316 µM, first compound 0.1 µM
[21] = second compound 0.0316 µM, first compound 0.316 µM
[22] = second compound 0.0316 µM, first compound 1 µM
[23] = second compound 0.0316 µM, first compound 3.16 µM
[24] = second compound 0.0316 µM, first compound 10 µM
[25] = second compound 0.1 µM, first compound 0.0316 µM
[26] = second compound 0.1 µM, first compound 0.1 µM
[27] = second compound 0.1 µM, first compound 0.316 µM
[28] = second compound 0.1 µM, first compound 1 µM
[29] = second compound 0.1 µM, first compound 3.16 µM
[30] = second compound 0.1 µM, first compound 10 µM
[31] = second compound 0.316 µM, first compound 0.0316 µM
[32] = second compound 0.316 µM, first compound 0.1 µM
[33] = second compound 0.316 µM, first compound 0.316 µM
[34] = second compound 0.316 µM, first compound 1 µM
[35] = second compound 0.316 µM, first compound 3.16 µM
[36] = second compound 0.316 µM, first compound 10 µM
[37] = second compound 1 µM, first compound 0.0316 µM
[38] = second compound 1 µM, first compound 0.1 µM
[39] = second compound 1 µM, first compound 0.316 µM
[40] = second compound 1 µM, first compound 1 µM
[41] = second compound 1 µM, first compound 3.16 µM
[42] = second compound 1 µM, first compound 10 µM
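Note: spheroids exposed to agents for seven days before read-out.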

SMILES: C#Cc1c(F)ccc2cc(O)cc(-c3ncc4c(N5CC6CCC(C5)N6)nc(OCC56CCCN5CC(F)C6)nc4c3F)c12 (stereo not given)
viability, T/C (compound 0.0316 µM): 109% [middle of 4 runs]
viability, T/C (compound 0.1 µM): 106% [middle of 4 runs]
viability, T/C (compound 0.316 µM): 104% (2×) and 101% and 102%
viability, T/C (compound 1 µM): 105% [middle of 4 runs]
viability, T/C (compound 3.16 µM): 99.8% and 91.5% (2×) and 108%
viability, T/C (compound 10 µM): 89.9% [middle of 4 runs]
pIC50 (curve of compound): < 5.00

SMILES: Cn1ncc(Cl)c1-c1cc(C(=O)NC(CN)Cc2cccc(F)c2)sc1Cl (stereo not given) + CC(Nc1ccc2c(c1)OCCn1cc(N3C(=O)OCC3C(F)F)nc1-2)C(N)=O
pIC50 [1]: < 5.00
pIC50 [2]: < 5.00
pIC50 [3]: < 5.00
pIC50 [4]: < 5.00
pIC50 [5]: < 5.00
pIC50 [6]: < 5.00
viability, T/C [7]: 106%
viability, T/C [8]: 98.2%
viability, T/C [9]: 105%
viability, T/C [10]: 95.3%
viability, T/C [11]: 93.6%
viability, T/C [12]: 97.2%
viability, T/C [13]: 109%
viability, T/C [14]: 102%
viability, T/C [15]: 110%
viability, T/C [16]: 95.9%
viability, T/C [17]: 97.6%
viability, T/C [18]: 102%
viability, T/C [19]: 109%
viability, T/C [20]: 109%
viability, T/C [21]: 99.4%
viability, T/C [22]: 102%
viability, T/C [23]: 90.3%
viability, T/C [24]: 99.3%
viability, T/C [25]: 88.7%
viability, T/C [26]: 102%
viability, T/C [27]: 103%
viability, T/C [28]: 97.5%
viability, T/C [29]: 97.1%
viability, T/C [30]: 95%
viability, T/C [31]: 85.7%
viability, T/C [32]: 100%
viability, T/C [33]: 95.9%
viability, T/C [34]: 95.6%
viability, T/C [35]: 98.7%
viability, T/C [36]: 92.9%
viability, T/C [37]: 87.1%
viability, T/C [38]: 85.9%
viability, T/C [39]: 91.9%
viability, T/C [40]: 94.4%
viability, T/C [41]: 91%
viability, T/C [42]: 85.7%

SMILES: C#Cc1c(F)ccc2cc(O)cc(-c3ncc4c(N5CC6CCC(C5)N6)nc(OCC56CCCN5CC(F)C6)nc4c3F)c12 (stereo not given) + COc1c(OCCCN2CCOCC2)ccc2c3n(c(=NC(=O)c4cnc(N)nc4)nc12)CCN3
pIC50 [1]: < 5.00
pIC50 [2]: < 5.00
pIC50 [3]: < 5.00
pIC50 [4]: < 5.00
pIC50 [5]: < 5.00
pIC50 [6]: 5.61
viability, T/C [7]: 114%
viability, T/C [8]: 108%
viability, T/C [9]: 110%
viability, T/C [10]: 90%
viability, T/C [11]: 89.1%
viability, T/C [12]: 81.7%
viability, T/C [13]: 122%
viability, T/C [14]: 113%
viability, T/C [15]: 99.9%
viability, T/C [16]: 101%
viability, T/C [17]: 100%
viability, T/C [18]: 79.5%
viability, T/C [19]: 91.6%
viability, T/C [20]: 101%
viability, T/C [21]: 76%
viability, T/C [22]: 81.7%
viability, T/C [23]: 85.6%
viability, T/C [24]: 74.3%
viability, T/C [25]: 64%
viability, T/C [26]: 65.7%
viability, T/C [27]: 80.8%
viability, T/C [28]: 71%
viability, T/C [29]: 75.8%
viability, T/C [30]: 64.3%
viability, T/C [31]: 60.8%
viability, T/C [32]: 58%
viability, T/C [33]: 67.3%
viability, T/C [34]: 62.6%
viability, T/C [35]: 49.1%
viability, T/C [36]: 47.9%
viability, T/C [37]: 54.6%
viability, T/C [38]: 66%
viability, T/C [39]: 53.9%
viability, T/C [40]: 51.2%
viability, T/C [41]: 50.9%
viability, T/C [42]: 25.8%

Second part, led by results:

pIC50 [1]: < 5.00
pIC50 [2]: < 5.00
pIC50 [3]: < 5.00
pIC50 [4]: < 5.00
pIC50 [5]: < 5.00
pIC50 [6]: < 5.00
SMILES: CC(Cn1ccc(-c2ccc(C#N)c(Cl)c2)n1)NC(=O)c1cc(C(C)O)[nH]n1 (stereo not given) + CC(Nc1ccc2c(c1)OCCn1cc(N3C(=O)OCC3C(F)F)nc1-2)C(N)=O
viability, T/C [7]: 111%
viability, T/C [8]: 99.6%
viability, T/C [9]: 105%
viability, T/C [10]: 101%
viability, T/C [11]: 105%
viability, T/C [12]: 106%
viability, T/C [13]: 113%
viability, T/C [14]: 98.6%
viability, T/C [15]: 102%
viability, T/C [16]: 98.4%
viability, T/C [17]: 101%
viability, T/C [18]: 111%
viability, T/C [19]: 102%
viability, T/C [20]: 109%
viability, T/C [21]: 101%
viability, T/C [22]: 96.2%
viability, T/C [23]: 101%
viability, T/C [24]: 102%
viability, T/C [25]: 98.2%
viability, T/C [26]: 100%
viability, T/C [27]: 103%
viability, T/C [28]: 95.2%
viability, T/C [29]: 109%
viability, T/C [30]: 95%
viability, T/C [31]: 92.6%
viability, T/C [32]: 98%
viability, T/C [33]: 97.7%
viability, T/C [34]: 94.1%
viability, T/C [35]: 104%
viability, T/C [36]: 91.9%
viability, T/C [37]: 87.7%
viability, T/C [38]: 91.6%
viability, T/C [39]: 91.7%
viability, T/C [40]: 86.2%
viability, T/C [41]: 90.4%
viability, T/C [42]: 92.3%

pIC50 [3]: 6.05
pIC50 [4]: 6.01
pIC50 [5]: 6.04
pIC50 [6]: 6.16
pIC50 (curve of first compound, second compound 3.16 µM): 6.09
pIC50 (curve of first compound, second compound 10 µM): 6.14
SMILES: Cn1cnc2c(F)c(Nc3ccc(Br)cc3Cl)c(C(=O)NOCCO)cc21 + CC(Nc1ncnc2nc[nH]c12)c1cc2cccc(Cl)c2c(=O)n1-c1ccccc1
viability, T/C (second compound 0.0316 µM, first compound 0.00949 µM): 95.4%
viability, T/C (second compound 0.0316 µM, first compound 0.03 µM): 99.9%
viability, T/C (second compound 0.0316 µM, first compound 0.0949 µM): 86.3%
viability, T/C (second compound 0.0316 µM, first compound 0.3 µM): 70.7%
viability, T/C (second compound 0.0316 µM, first compound 0.949 µM): 50.1%
viability, T/C (second compound 0.0316 µM, first compound 3 µM): 24.9%
viability, T/C (second compound 0.1 µM, first compound 0.00949 µM): 99.5%
viability, T/C (second compound 0.1 µM, first compound 0.03 µM): 88.6%
viability, T/C (second compound 0.1 µM, first compound 0.0949 µM): 82.2%
viability, T/C (second compound 0.1 µM, first compound 0.3 µM): 91.5%
viability, T/C (second compound 0.1 µM, first compound 0.949 µM): 50.9%
viability, T/C (second compound 0.1 µM, first compound 3 µM): 24.2%
viability, T/C (second compound 0.316 µM, first compound 0.00949 µM): 100%
viability, T/C (second compound 0.316 µM, first compound 0.03 µM): 103%
viability, T/C (second compound 0.316 µM, first compound 0.0949 µM): 80.2%
viability, T/C (second compound 0.316 µM, first compound 0.3 µM): 65%
viability, T/C (second compound 0.316 µM, first compound 0.949 µM): 57.2%
viability, T/C (second compound 0.316 µM, first compound 3 µM): 16%
viability, T/C (second compound 1 µM, first compound 0.00949 µM): 89.8%
viability, T/C (second compound 1 µM, first compound 0.03 µM): 78.4%
viability, T/C (second compound 1 µM, first compound 0.0949 µM): 77.3%
viability, T/C (second compound 1 µM, first compound 0.3 µM): 71.7%
viability, T/C (second compound 1 µM, first compound 0.949 µM): 41.9%
viability, T/C (second compound 1 µM, first compound 3 µM): 22.2%
viability, T/C (second compound 3.16 µM, first compound 0.00949 µM): 92.8%
viability, T/C (second compound 3.16 µM, first compound 0.03 µM): 80.4%
viability, T/C (second compound 3.16 µM, first compound 0.0949 µM): 80.9%
viability, T/C (second compound 3.16 µM, first compound 0.3 µM): 57.9%
viability, T/C (second compound 3.16 µM, first compound 0.949 µM): 55.9%
viability, T/C (second compound 3.16 µM, first compound 3 µM): 15.5%
viability, T/C (second compound 10 µM, first compound 0.00949 µM): 87.8%
viability, T/C (second compound 10 µM, first compound 0.03 µM): 85.6%
viability, T/C (second compound 10 µM, first compound 0.0949 µM): 70%
viability, T/C (second compound 10 µM, first compound 0.3 µM): 76.4%
viability, T/C (second compound 10 µM, first compound 0.949 µM): 42%
viability, T/C (second compound 10 µM, first compound 3 µM): 14.1%

Reference: PubChem BioAssay AID1963961 (Molecular Pharmacology Branch, DTP, NCI, 2024)
